Measurements published in patent US8912121B2, “Herbicidal compositions comprising 4-amino-3-chloro-5-fluoro-6-(4-chloro-2-fluoro-3-methoxyphenyl)pyridine-2-carboxylic acid or a derivative thereof and certain PS II inhibitors” (Dow Agrosciences LLC, priority 2012, dated 2014).

Key:
[1] = system: IPOHE (Ipomoea hederacea, ivyleaf morningglory); assay: Postemergence foliar-applied mixtures, direct seeded rice, greenhouse; format: in vivo, Ipomoea hederacea Jacq.; conditions: post-emergence
Description: (§1) Seeds or nutlets of the desired test plant species were planted in a soil matrix prepared by mixing a loam or sandy loam soil (e.g., 28.6 percent silt, 18.8 percent clay, and 52.6 percent sand, with a pH of about 5.8 and an organic matter content of about 1.8 percent) and calcareous grit in an 80 to 20 ratio. The soil matrix was contained in plastic pots with a volume of 1 quart and a surface area of 83.6 square centimeters (cm^2). When required to ensure good germination and healthy plants, a fungicide treatment and/or other chemical or physical treatment was applied. The plants were grown for 8-22 days in a greenhouse with an approximate 14 h photoperiod which was maintained at about 29° C. during the day and 26° C. during the night. Nutrients (Peters Excel® 15-5-15 5-Ca 2-Mg and iron chelate) were applied in the irrigation solution as needed and water was added on a regular basis. Supplemental lighting was provided with overhead metal halide 1000-Watt lamps as necessary. The plants were employed for testing when they reached the first through fourth true leaf stage.
(§2) Treatments consisted of the acid or esters of 4-amino-3-chloro-5-fluoro-6-(4-chloro-2-fluoro-3-methoxy-phenyl) pyridine-2-carboxylic acid (Compound A), each formulated as an SC (suspension concentrate), and various herbicidal components alone and in combination. Forms of compound A were applied on an acid equivalent basis.
(§3) Other herbicidal components were applied on an active ingredient basis and included Photosystem II (PSII)-inhibiting herbicides propanil formulated as Stam® M4 EC, bentazon-sodium formulated as Basagran®, atrazine formulated as Atrazine 90 WDG, bromoxynil octanoate ester formulated as Buctril®, simetryne (technical grade material), simazine formulated as Princep® Caliber 90, ioxynil (technical grade material), cyanazine (technical grade material), and hexazinone (technical grade material).
(§4) Treatment requirements were calculated based upon the rates being tested, the concentration of active ingredient or acid equivalent in the formulation, and a 12 mL application volume at a rate of 187 L/ha.
(§5) For treatments comprised of formulated compounds, measured amounts of compounds were placed individually in 25 mL glass vials and diluted in a volume of 1.25% (v/v) Agri-Dex® crop oil concentrated to obtain 12× stock solutions. […] Application solutions were prepared by adding an appropriate amount of each stock solution (e.g., 1 mL) and diluted to the appropriate final concentrations with the addition of 10 mL of an aqueous mixture of 1.25% (v/v) crop oil concentrate so that the final spray solutions contained 1.25+/−0.05% (v/v) crop oil concentrate.
(§6) For treatments comprised of technical compounds, weighed amounts can be placed individually in 25 mL glass vials and dissolved in a volume of 97:3 v/v acetone/DMSO to obtain 12× stock solutions. […] Application solutions can be prepared by adding an appropriate amount of each stock solution (e.g., 1 mL) and diluted to the appropriate final concentrations with the addition of 10 mL of an aqueous mixture of 1.5% (v/v) crop oil concentrate so that the final spray solutions contain 1.25% (v/v) crop oil concentrate. When technical materials are used, the concentrated stock solutions can be added to the spray solutions so that the final acetone and DMSO concentrations of the application solutions are 16.2% and 0.5%, respectively.
(§7) For treatments comprised of formulated and technical compounds, weighed amounts of the technical materials were placed individually in 25 mL glass vials and dissolved in a volume of 97:3 v/v acetone/DMSO to obtain 12× stock solutions, and measured amounts of the formulated compounds were placed individually in 25 mL glass vials and diluted in a volume of 1.5% (v/v) crop oil concentrate or water to obtain 12× stock solutions. […]

[2] = system: ECHCG (Echinochloa crusgalli, barnyardgrass); assay: as above; format: in vivo, Echinochloa crusgalli (L.) Beauv.; conditions: 625 g ai/ha; 21 DAA
Protocol: as §1, with “When required to ensure good germination and healthy plants, a fungicide treatment and/or other chemical or physical treatment was applied.” left out
as §2, §3, §5, §6
For treatments comprised of formulated and technical compounds, weighed amounts of the technical materials were placed individually in 25 mL glass vials and dissolved in a volume of 97:3 v/v acetone/DMSO to obtain 12× stock solutions, and measured amounts of the formulated compounds were placed individually in 25 mL glass vials and diluted in a volume of 1.5% (v/v) crop oil concentrate or water to obtain 12× stock solutions. […] Application solutions were prepared by adding an appropriate amount of each stock solution (eg, 1 mL) and diluted to the appropriate final concentrations with the addition of an appropriate amount of an aqueous mixture of 1.5% (v/v) crop oil concentrate so that the final spray solutions contained 1.25% (v/v) crop oil concentrate.

[3] = system: ECHCO (Echinochloa colona, junglerice); assay: as above; format: in vivo, Echinochloa colona (L.) Link; conditions: 21 DAA
Description: as §1, §2, §3, §4, §5, §6, §7

[4] = system: XANST (Xanthium strumarium, common cocklebur); assay: Pre-emergence soil-applied mixtures, greenhouse; format: in vivo, Xanthium strumarium L.; conditions: Terbuthylazine 1000 g ai/ha; 27 DAA
Description: (§8) Seeds or nutlets of the desired test plant species were planted in a soil matrix prepared by mixing a loam soil (32 percent silt, 23 percent clay, and 45 percent sand, with a pH of about 6.5 and an organic matter content of about 1.9 percent) and calcareous grit in an 80 to 20 ratio. The soil matrix was contained in plastic pots with a volume of 1 quart and a surface area of 83.6 square centimeters (cm^2).
(§9) Treatments consisted of the benzyl ester of 4-amino-3-chloro-5-fluoro-6-(4-chloro-2-fluoro-3-methoxy-phenyl)pyridine-2-carboxylic acid (compound A) formulated as an SC (suspension concentrate) and various herbicidal components alone and in combination. Forms of compound A were applied on an acid equivalent basis.
(§10) Other herbicidal components were applied on an acid equivalent or active ingredient basis and included the PSII-inhibiting herbicides, atrazine formulated as Atrazine® 90WDG, metribuzin formulated as Metribuzin 75DF, simazine formulated as Princep Caliber 90, tebuthiuron formulated as Spike 80DF, cyanazine (technical grade material), hexazinone (technical grade material), linuron (technical grade material), terbuthylazine (technical grade material), and diuron formulated as Diuron 4L.
as §4
as §5, with “oil concentrate (COC)” for “oil concentrated”, “(v/v) COC” for “(v/v) crop oil concentrate”, “contained 1.25%” for “contained 1.25+/−0.05%”, “(v/v) COC.” for “(v/v) crop oil concentrate.”
as §6, with “97:3 (v/v)” for “97:3 v/v”, “(v/v) COC” for “(v/v) crop oil concentrate”, “(v/v) COC.” for “(v/v) crop oil concentrate.”
(§11) For treatments comprised of formulated and technical compounds, weighed amounts of the technical materials can be placed individually in 25 mL glass vials and dissolved in a volume of 97:3 (v/v) acetone/DMSO to obtain 12× stock solutions, and measured amounts of the formulated compounds can be placed individually in 25 mL glass vials and diluted in a volume of 1.5% (v/v) COC or water to obtain 12× stock solutions. […] Application solutions can be prepared by adding an appropriate amount of each stock solution (e.g., 1 mL) and diluted to the appropriate final concentrations with the addition of an appropriate amount of an aqueous mixture of 1.5% (v/v) COC so that the final spray solutions contain 1.25% (v/v) COC. As required, additional water and/or 97:3 (v/v) acetone/DMSO can be added to individual application solutions so that the final acetone and DMSO concentrations of the application solutions being compared are 8.1% and 0.25%, respectively.
(§12) All stock solutions and applications solutions were visually inspected for compound compatibility prior to application. Spray solutions were applied to the soil with an overhead Mandel track sprayer equipped with a 8002E nozzles calibrated to deliver 187 L/ha over an application area of 0.503 m^2 at a spray height of 18 inches (46 cm) above average pot height. […]

[5] = system: BRAPP (Brachiaria platyphylla, broadleaf signalgrass); assay: Pre-emergence soil-applied mixtures, greenhouse; format: in vivo, Brachiaria platyphylla (Groseb.) Nash; conditions: 27 DAA
Description: as §8, §9, §10, §4
as §5, with “oil concentrate (COC)” for “oil concentrated”, “(v/v) COC” for “(v/v) crop oil concentrate”, “contained 1.25%” for “contained 1.25+/−0.05%”, “(v/v) COC.” for “(v/v) crop oil concentrate.”
as §6, with “97:3 (v/v)” for “97:3 v/v”, “(v/v) COC” for “(v/v) crop oil concentrate”, “(v/v) COC.” for “(v/v) crop oil concentrate.”
as §11, §12

## N#Cc1cc(I)c(O)c(I)c1 [Ioxynil, 4-hydroxy-3,5-diiodobenzonitrile, reference compound]
[1]; 480 h, read-out: Visual Weed Control (%) Obs, 300 g ai/ha, 20 DAA
  pest or weed control at 300 g/ha: 50%

## CN(C)c1nc(=O)n(C2CCCCC2)c(=O)n1C [Hexazinone, 3-cyclohexyl-6-(dimethylamino)-1-methyl-1,3,5-triazine-2,4(1H,3H)-dione, reference compound]
[2]
  Visual Weed Control (%) Obs: 20%
[3]; 625 g ai/ha
  Visual Weed Control (%) Obs: 25%
[3]; 1250 g ai/ha
  Visual Weed Control (%) Obs: 55%
[1]; 504 h, 625 g ai/ha, 21 DAA, read-out: Visual Weed Control (%) Obs
  pest or weed control at 625 g/ha: 80%

## CCNc1nc(Cl)nc(NC(C)(C)C)n1 [Terbuthylazine, 6-chloro-N-(1,1-dimethylethyl)-N′-ethyl-1,3,5-triazine-2,4-diamine, reference compound]
[4]
  Visual Weed Control (%) - 27 DAA XANST Obs: 45%

## CCNc1nc(Cl)nc(NC(C)(C)C#N)n1 [Cyanazine, 2-[[4-chloro-6-(ethylamino)-1,3,5-triazin-2-yl]amino]-2-methylpropanenitrile]
[1]; 480 h, read-out: Visual Weed Control (%) Obs, 275 g ai/ha, 20 DAA
  pest or weed control at 275 g/ha: 50%
[5]; Cyanazine 170 g ai/ha
  Visual Weed Control (%) - 27 DAA BRAPP Obs: 0%
[5]; Cyanazine 440 g ai/ha
  Visual Weed Control (%) - 27 DAA BRAPP Obs: 15%
[5]; Cyanazine 880 g ai/ha
  Visual Weed Control (%) - 27 DAA BRAPP Obs: 10%

## CON(C)C(=O)Nc1ccc(Cl)c(Cl)c1 [Linuron, N′-(3,4-dichlorophenyl)-N-methoxy-N-methylurea]
[5]; Linuron 620 g ai/ha
  Visual Weed Control (%) - 27 DAA BRAPP Obs: 0%
